Data taken from patent publication US20100069460A1, “1-PHENYL 1-THIO-D-GLUCITOL DERIVATIVE” (TAISHO PHARMACEUTICAL CO., LTD., priority 2006, published 2010).

Legend:
db/db mice = assay: Confirmation test for hypoglycemic effect in db/db mice; type: in vivo; settings: oral gavage, 1 mg/10 mL suspension at 10 mL/kg, decrease in blood glucose AUC (0 to 8 hours) relative to control group
Method: The laboratory animals used were db/db mice (CLEA Japan, Inc., male, 7 weeks of age). A test substance was suspended in a 0.5% aqueous carboxymethylcellulose (CMC) solution and adjusted to a concentration of 1 mg/10 mL. On the day of the test, the db/db mice were divided into groups of 6 animals each, such that differences in the mean values and variance of their blood glucose levels were minimized, according to the procedures for blood collection and blood glucose measurement described later. The mice were measured for their body weight. Then, the test substance suspension was administered by oral gavage using a probe for oral administration at a volume of 10 mL/kg. The control group received a 0.5% aqueous CMC solution alone. Blood was collected at 8 points in total: before administration of the test substance (0 hour) and 0.5, 1, 2, 4, 6, 8 and 24 hours after oral administration. The test was performed under ad libitum feeding and drinking conditions.
Blood was collected from the orbital venous sinus of each animal under ether anesthesia using a heparin-coated blood collection tube and measured for its blood glucose level with a Glucose CII-Test Wako (Wako Pure Chemical Industries, Ltd., Japan). To determine the intensity (%) of hypoglycemic effect, casual blood glucose levels measured between 0 and 8 hours in each test group were analyzed by the trapezoidal method to calculate the area under the blood glucose-time curve (AUC). The results are expressed as a decrease in AUC relative to that of the control group.

human SGLT2 = target: T1, human SGLT2 (Homo sapiens, UniProt P31639); assay: Inhibition test for sodium-dependent sugar uptake in CHO-k1 cells stably expressing human SGLT2; type: cell-based; settings: 1 mM [14C]methyl α-D-glucopyranoside uptake, 37° C., 1 hour
T1 construct: expressed in transfected cells; vector pcDNA3.1+hygro (Invitrogen)
T1 sequence (P31639 1-672): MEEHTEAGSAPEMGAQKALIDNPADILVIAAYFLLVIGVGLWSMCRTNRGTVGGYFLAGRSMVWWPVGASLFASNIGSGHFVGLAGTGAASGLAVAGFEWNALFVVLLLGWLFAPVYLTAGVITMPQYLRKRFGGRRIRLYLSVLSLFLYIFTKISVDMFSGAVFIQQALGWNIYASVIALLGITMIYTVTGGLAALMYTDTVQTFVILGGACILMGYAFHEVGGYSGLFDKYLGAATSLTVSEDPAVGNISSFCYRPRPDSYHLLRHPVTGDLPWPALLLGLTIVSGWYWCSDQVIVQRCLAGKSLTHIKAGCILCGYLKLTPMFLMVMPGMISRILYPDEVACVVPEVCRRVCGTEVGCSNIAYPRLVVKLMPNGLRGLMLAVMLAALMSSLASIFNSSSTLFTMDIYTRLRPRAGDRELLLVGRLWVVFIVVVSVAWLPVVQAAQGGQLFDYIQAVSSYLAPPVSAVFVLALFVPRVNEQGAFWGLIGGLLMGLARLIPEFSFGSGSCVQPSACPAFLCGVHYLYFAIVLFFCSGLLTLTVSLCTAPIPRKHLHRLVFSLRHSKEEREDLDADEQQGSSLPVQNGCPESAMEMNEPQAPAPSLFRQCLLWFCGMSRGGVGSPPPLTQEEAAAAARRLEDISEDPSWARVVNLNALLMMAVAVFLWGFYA
Method: (§1) A human SGLT1 sequence (NM_000343) was reverse-transcribed and amplified from human small intestine mRNA, and then introduced into pCMV-tag5A (Stratagene). Likewise, a human SGLT2 sequence (NM_003041) was prepared from human kidney mRNA in the same manner and introduced into pcDNA3.1+hygro (Invitrogen). The individual cloned sequences were confirmed to be identical with the sequences reported.
(§2) The human SGLT1 and human SGLT2 expression vectors were each transfected into CHO-k1 cells using lipofectamine 2000 (Invitrogen). The cells were cultured in the presence of 500 μg/mL geneticin (SGLT1) or hygromycin B (SGLT2) to select resistant strains and specific activity of sugar uptake in the system shown below was used as an indicator to obtain SGLT-expressing cells.
(§3) The cells stably expressing human SGLT1 or human SGLT2 were used for an inhibition test of sodium-dependent sugar uptake activity.
(§4) The cells were incubated for 20 minutes in 1 mL pretreatment buffer (140 mM choline chloride, 2 mM KCl, 1 mM CaCl2, 1 mM MgCl2, 10 mM HEPES/5 mM Tris, pH 7.4). The pretreatment buffer was removed and replaced with 200 μL uptake buffer containing a test compound (methyl α-D-glucopyranoside (containing [^14C]methyl α-D-glucopyranoside) at 0.1 mM for SGLT1 inhibition and 1 mM for SGLT2 inhibition, 140 mM NaCl, 2 mM KCl, 1 mM CaCl2, 1 mM MgCl2, 10 mM HEPES/5 mM Tris, pH 7.4). Uptake reaction was performed at 37° C. for 30 minutes (SGLT1) or 1 hour (SGLT2). After the reaction, the cells were washed twice with 1 mL washing buffer (10 mM methyl α-D-glucopyranoside, 140 mM choline chloride, 2 mM KCl, 1 mM CaCl2, 1 mM MgCl2, 10 mM HEPES/5 mM Tris, pH 7.4), and then dissolved in a 0.2 M NaOH solution (400 μL). Aquazol 2 (Perkin Elmer) was added and mixed well with each sample, followed by measurement of radioactivity using a liquid scintillation counter (Beckman Coulter) to calculate the amount of sugar uptake. For the control group, uptake buffer containing no test compound was prepared. Moreover, another uptake buffer containing choline chloride instead of NaCl was also prepared for basal uptake.
(§5) Test compounds prepared at 6 appropriate concentrations were used to measure the amount of sugar uptake, and their concentrations required for 50% inhibition of the amount of sugar uptake were calculated as IC50 values, assuming that the amount of sugar uptake in the control group was set to 100%.

human SGLT1 = target: T2, human SGLT1 (Homo sapiens, UniProt P13866); assay: Inhibition test for sodium-dependent sugar uptake in CHO-k1 cells stably expressing human SGLT1; type: cell-based; settings: 0.1 mM [14C]methyl α-D-glucopyranoside uptake, 37° C., 30 minutes
T2 construct: expressed in transfected cells; vector pCMV-tag5A (Stratagene)
T2 sequence (P13866 1-664): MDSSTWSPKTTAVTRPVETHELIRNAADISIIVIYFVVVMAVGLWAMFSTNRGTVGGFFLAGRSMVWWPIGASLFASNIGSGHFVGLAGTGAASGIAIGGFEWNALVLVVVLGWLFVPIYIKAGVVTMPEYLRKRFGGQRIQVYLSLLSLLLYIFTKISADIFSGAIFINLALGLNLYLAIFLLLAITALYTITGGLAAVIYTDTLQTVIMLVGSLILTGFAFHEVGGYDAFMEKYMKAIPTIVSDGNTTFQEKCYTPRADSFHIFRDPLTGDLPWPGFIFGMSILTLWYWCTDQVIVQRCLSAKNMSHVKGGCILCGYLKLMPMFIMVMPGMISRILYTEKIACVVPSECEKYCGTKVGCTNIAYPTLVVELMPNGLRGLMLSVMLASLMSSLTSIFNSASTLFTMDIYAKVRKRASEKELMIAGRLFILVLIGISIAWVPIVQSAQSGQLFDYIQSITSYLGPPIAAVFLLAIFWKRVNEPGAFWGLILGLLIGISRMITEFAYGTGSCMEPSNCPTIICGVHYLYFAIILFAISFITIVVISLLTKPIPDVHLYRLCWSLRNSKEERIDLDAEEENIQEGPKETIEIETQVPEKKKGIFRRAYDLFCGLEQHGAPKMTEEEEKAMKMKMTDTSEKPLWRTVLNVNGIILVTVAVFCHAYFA
Method: as §1, §2, §3, §4, §5

Compound	IC50 (human SGLT2)	IC50 (human SGLT1)	Intensity of hypoglycemic effect (db/db mice)
CCOc1ccc(Cc2cc([C@@H]3S[C@H](CO)[C@@H](O)[C@H](O)[C@H]3O)c(O)cc2C)cc1 [Compound 98, reference compound]	–	–	35.0%
Cc1ccc(Cc2cc([C@@H]3S[C@H](CO)[C@@H](O)[C@H](O)[C@H]3O)c(O)cc2C)cc1 [Compound I, (1S)-1,5-anhydro-1-[4-methyl-5-(4-methylbenzyl)-2-hydroxyphenyl]-1-thio-D-glucitol]	20 nM	17 nM	48.5%
COc1ccc(Cc2cc([C@@H]3S[C@H](CO)[C@@H](O)[C@H](O)[C@H]3O)c(O)cc2C)cc1 [II, (1S)-1,5-anhydro-1-[5-(4-methoxybenzyl)-4-methyl-2-hydroxyphenyl]-1-thio-D-glucitol]	20 nM	32 nM	49.7%
CCc1ccc(Cc2cc([C@@H]3S[C@H](CO)[C@@H](O)[C@H](O)[C@H]3O)c(O)cc2C)cc1 [III, (1 S)-1,5-anhydro-1-[5-(4-ethylbenzyl)-2-hydroxy-4-methylphenyl]-1-thio-D-glucitol]	12 nM	32 nM	–
COc1ccc(Cc2cc([C@@H]3S[C@H](CO)[C@@H](O)[C@H](O)[C@H]3O)c(O)cc2Cl)cc1 [VII, (1S)-1,5-anhydro-1-[4-chloro-2-hydroxy-5-(4-methoxybenzyl)phenyl]-1-thio-D-glucitol]	13 nM	33 nM	–

More lines, in order of falling IC50 (human SGLT2), values ahead:

IC50 (human SGLT2)	IC50 (human SGLT1)	Compound	Intensity of hypoglycemic effect (db/db mice)
11 nM	19 nM	Cc1ccc(Cc2cc([C@@H]3S[C@H](CO)[C@@H](O)[C@H](O)[C@H]3O)c(O)cc2Cl)cc1 [V, (1S)-1,5-anhydro-1-[4-chloro-2-hydroxy-5-(4-methylbenzyl)phenyl]-1-thio-D-glucitol]	–
10 nM	27 nM	CSc1ccc(Cc2cc([C@@H]3S[C@H](CO)[C@@H](O)[C@H](O)[C@H]3O)c(O)cc2C)cc1 [Compound IV, (1S)-1,5-anhydro-1-[2-hydroxy-4-methyl-5-[4-(methylsulfanyl)benzyl]phenyl]-1-thio-D-glucitol]	–
8 nM	29 nM	CCc1ccc(Cc2cc([C@@H]3S[C@H](CO)[C@@H](O)[C@H](O)[C@H]3O)c(O)cc2Cl)cc1 [VI, (1S)-1,5-anhydro-1-[4-chloro-2-hydroxy-5-(4-ethylbenzyl)phenyl]-1-thio-D-glucitol]	–
